The values that follow come from patent US7259293B2, “Expression of eukaryotic peptides in plant plastids” (priority 1998, dated 2007).

Series [1] deals with Wild type tobacco (nontransformed control plants). In words: Whole plant glyphosate spray tolerance, wild type. The format is in vivo. The note with it: concentrations as low as 16 oz/Acre.
In series [2] the test system is homoplasmic tobacco line 38773-6. The experiment in a line: In vitro glyphosate tolerance, shoot regeneration from leaf explants, line 38773-6. It is filed as cell-based. The conditions noted are these: tobacco plants expressing EPSPS in plastids (pMON38773). Here is the method:
A transplastomic tobacco line homoplasmic for the construct pMON38773 was tested in vitro to determine the highest level of glyphosate tolerance. Explant tissue was prepared from leaf pieces of nontransgenic wild type tobacco control, Havanna, plants and the homoplasmic tobacco line 38773-6 and cultured for regeneration of shoots on TSO medium (described above) supplemented with glyphosate levels of 50 μM, 75 μM, 100 μM, 150 μM and 200 μM. The number of explants producing shoots was determined at 3 weeks and 6 weeks after explant preparation and culturing on glyphosate containing medium.

The test system of series [3] is homoplasmic tobacco plants of the line 38773-6. In words: Whole plant glyphosate spray tolerance, line 38773-6. It is filed as in vivo. Here is the method:
Homoplasmic tobacco plants of the line 38773-6 are sprayed with glyphosate using a track sprayer at concentrations corresponding to 0 oz/acre, 16 oz/acre, 32 oz/acre and 64 oz/acre to test for whole plant tolerance. Plant height was measured before and after spraying with glyphosate. The vegetative injury data was collected two weeks after spraying, while the reproductive injury data was collected at plant maturity.
Tolerance is characterized by the continued growth and greening of tissues sprayed with glyphosate. However, as the concentration of glyphosate applied increased, there was a corresponding increase in the level of vegetative injury.

The test system of a further series is Nb2 cell line. In words: Nb2 cell proliferation bioactivity assay. The format is cell-based, rat. The note with it: 48 hrs incubation, MTS absorbance. The protocol:
Bioactivity of the pH adjusted and centrifuged extract was tested using cells from an Nb2 cell line. These cells proliferate in the presence of growth hormone and other […] type compounds. The assay involves putting various concentrations of growth hormone-containing extract into a 96 well plate. Then a constant amount of cells are added to each well. The plate is incubated for 48 hrs and then a reagent called MTS is added. Metabolizing cells take up the MTS and convert it to a blue colored substance. The more cells there are the more blue color in the well. The blue color is measured using a spectrophotometer. The number of cells should be proportional to the concentration of growth hormone in the media. At some high concentration one expects that the cells will become saturated with growth hormone and that the dose response will level off. At very low hGH concentrations essentially no enhanced growth is seen.
To test this hypothesis in vitro, a rat lymphoma cell line, Nb2, that proliferates in the presence of somatotropin (hGH) and other […] type compounds was employed. Proliferation of this cell line is proportional to the amount of somatotropin in the culture medium, until saturation is reached. The ion exchange column eluate from transplastomic Nt-4838 and Nt-38794 plants or identically treated wild-type plants was added to the Nb2 cell culture medium. As control, E. coli produced, refolded hGH was used.

For series [4] the following is noted: in vivo; cited from earlier work.

As to `O=C(O)CNCP(=O)(O)O` [Glyphosate, N-phosphonomethylglycine], the “susceptibility to glyphosate spray” value in series [1] is “highly susceptible”. The “glyphosate level tolerated (shoot regeneration)” value in series [2] was “at least 200 μM”. Besides, in series [3] (homoplasmic tobacco lines, initial results, vegetative tissue injury), the “glyphosate concentration tolerated, whole plant spray” value is 16 oz/acre. For the same compound, the “glyphosate level tolerated, whole plant spray” value in series [3] (subsequent experiments with additional transformed lines) is reported as 64 oz/Acre. Also, the “glyphosate level with a good level of tolerance, whole plant spray” value in series [3] (transplastomic lines) is on record as 32 oz/Acre.

Consider “alanine-hST: hGH with alanine N-terminus, from Nt4838 extracts, methionine removed by aminopeptidase”, for which the “proliferation of the Nb2 cell line (bioactivity)” value in the series on Nb2 cell line is listed as “also bioactive”.

“chloroplast derived hGH: human growth hormone expressed in tobacco plastids”: the “proliferation of the Nb2 cell line (bioactivity)” value with Nb2 cell line is “biologically active”; in the series on Nb2 cell line (listed as hGH expressed from a plant plastid) it was “sigmoidal shape when graphed as absorbance versus hGH concentration”.

“recombinant somatotropin: recombinant somatotropin produced in E. coli, N-terminal methionine or phenylalanine (Moore et al. 1988)”: the pharmacokinetics entry in series [4] was “equivalent pharmacokinetics”.
